According to US10435415B2, “Substituted tetrahydrocarbazole and carbazole carboxamide compounds” (BRISTOL-MYERS SQUIBB COMPANY, priority 2013, dated 2019):
Where two headings read alike, the source gives them in different places.

What was measured:
[1] = test system: BCR-stimulated CD69 expression on B cells in human whole blood; test: Whole Blood Assay of BCR-Stimulated CD69 Expression on B Cells; format: cell-based
Jak2 tyrosine kinase = Jak2 tyrosine kinase (Homo sapiens (Human), UniProt O60674); test: Jak2 Tyrosine Kinase Assay; format: biochemical; settings: selectivity of Btk over Jak2
human recombinant Btk = human recombinant Btk (Homo sapiens (Human), UniProt Q06187); test: Human Recombinant Btk Enzyme Assay; format: biochemical
Sequence of human recombinant Btk (Q06187 whole entry): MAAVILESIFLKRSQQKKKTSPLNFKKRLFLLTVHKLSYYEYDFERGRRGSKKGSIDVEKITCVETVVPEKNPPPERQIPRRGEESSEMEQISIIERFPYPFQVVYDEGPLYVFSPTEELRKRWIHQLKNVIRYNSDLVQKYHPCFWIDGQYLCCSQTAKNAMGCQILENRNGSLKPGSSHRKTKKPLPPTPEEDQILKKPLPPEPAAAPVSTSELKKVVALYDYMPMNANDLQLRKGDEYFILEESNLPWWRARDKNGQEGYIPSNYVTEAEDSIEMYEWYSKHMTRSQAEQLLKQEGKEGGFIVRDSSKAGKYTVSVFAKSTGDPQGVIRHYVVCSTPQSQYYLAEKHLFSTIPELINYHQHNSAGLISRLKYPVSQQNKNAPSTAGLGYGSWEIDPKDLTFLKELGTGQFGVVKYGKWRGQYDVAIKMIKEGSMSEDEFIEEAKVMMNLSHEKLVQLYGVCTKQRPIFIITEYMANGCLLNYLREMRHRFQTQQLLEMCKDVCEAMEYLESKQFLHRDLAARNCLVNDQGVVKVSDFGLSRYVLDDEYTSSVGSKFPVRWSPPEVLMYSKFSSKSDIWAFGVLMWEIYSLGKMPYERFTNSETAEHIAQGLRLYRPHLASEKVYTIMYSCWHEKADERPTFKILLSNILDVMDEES

Sequence of Jak2 tyrosine kinase (O60674 whole entry): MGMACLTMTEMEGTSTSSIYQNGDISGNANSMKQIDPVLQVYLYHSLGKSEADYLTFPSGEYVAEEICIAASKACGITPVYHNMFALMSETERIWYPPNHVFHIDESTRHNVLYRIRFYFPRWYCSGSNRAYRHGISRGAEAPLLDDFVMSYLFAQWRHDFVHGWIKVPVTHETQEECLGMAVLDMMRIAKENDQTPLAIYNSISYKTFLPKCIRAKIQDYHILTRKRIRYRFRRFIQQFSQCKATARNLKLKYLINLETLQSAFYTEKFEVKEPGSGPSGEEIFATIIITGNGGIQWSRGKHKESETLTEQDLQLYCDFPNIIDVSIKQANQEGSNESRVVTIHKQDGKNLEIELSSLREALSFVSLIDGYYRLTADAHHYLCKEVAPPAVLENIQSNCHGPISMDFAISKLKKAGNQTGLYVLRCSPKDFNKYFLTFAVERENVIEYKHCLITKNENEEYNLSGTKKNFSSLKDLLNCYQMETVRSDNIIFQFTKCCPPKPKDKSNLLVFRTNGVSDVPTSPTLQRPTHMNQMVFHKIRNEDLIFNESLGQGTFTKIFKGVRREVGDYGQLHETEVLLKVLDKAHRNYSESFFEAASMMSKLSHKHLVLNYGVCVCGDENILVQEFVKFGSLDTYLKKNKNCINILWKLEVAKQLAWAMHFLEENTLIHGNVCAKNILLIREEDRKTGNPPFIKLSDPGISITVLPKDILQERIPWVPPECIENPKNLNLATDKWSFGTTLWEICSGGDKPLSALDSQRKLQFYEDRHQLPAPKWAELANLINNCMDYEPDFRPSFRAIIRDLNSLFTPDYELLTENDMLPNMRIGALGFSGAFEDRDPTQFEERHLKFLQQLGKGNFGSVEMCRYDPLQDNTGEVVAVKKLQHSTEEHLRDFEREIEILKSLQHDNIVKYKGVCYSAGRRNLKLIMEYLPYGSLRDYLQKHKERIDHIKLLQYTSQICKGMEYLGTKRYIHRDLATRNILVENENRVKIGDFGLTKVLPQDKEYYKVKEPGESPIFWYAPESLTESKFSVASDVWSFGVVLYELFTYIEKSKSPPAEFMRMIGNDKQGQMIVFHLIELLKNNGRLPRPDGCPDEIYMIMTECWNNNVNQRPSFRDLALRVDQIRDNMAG

| Ratio of Jak2/Btk IC50 values (Jak2 tyrosine kinase) | Compound | also measured |
| --- | --- | --- |
| – | Cc1c(-c2c(F)cc(C(N)=O)c3[nH]c4c(c23)CC[C@H](C(C)(C)O)C4)cccc1-n1c(=O)[nH]c2c(F)cccc2c1=O (single isomer, unassigned) [Example 59] | IC50 [1]: 260 nM |
| 2200 | Cc1c(-c2c(F)cc(C(N)=O)c3[nH]c4cc(C(C)(C)O)ccc4c23)cccc1-n1c(=O)[nH]c2c(F)cc(F)cc2c1=O (single isomer, unassigned) [Example 73] | – |
| 1600 | Cc1c(-c2c(C#N)cc(C(N)=O)c3[nH]c4cc(C(C)(C)O)ccc4c23)cccc1-n1c(=O)cc2c(Cl)cccn2c1=O (single isomer, unassigned) [Example 72] | – |
| 3400 | Cc1c(-c2c(F)cc(C(N)=O)c3[nH]c4cc(C(C)(C)O)ccc4c23)cccc1-n1c(=O)[nH]c2c(Cl)cccc2c1=O (single isomer, unassigned) [Example 54] | IC50 ([1]; Homo sapiens, B-cell): 10 nM |
| >2600 | Cc1c(-c2c(F)cc(C(N)=O)c3[nH]c4cc(C(C)(C)O)ccc4c23)cccc1-n1c(=O)[nH]c2c(F)cc(F)cc2c1=O [Example 49] | – |
| 3800 | Cc1c(-c2c(F)cc(C(N)=O)c3[nH]c4cc(C(C)(C)O)ccc4c23)cccc1-n1c(=O)[nH]c2c(F)cc(F)cc2c1=O (single isomer, unassigned) [Example 50] | – |
| >6700 | Cc1c(-c2c(F)cc(C(N)=O)c3[nH]c4cc(C(C)(C)O)ccc4c23)cccc1-n1c(=O)[nH]c2cc(F)ccc2c1=O (single isomer, unassigned) [Example 51] | – |
| – | 3-Chloro-4-(R)-(2-chloro-3-(8-fluoro-1-methyl-2,4-dioxo-1,2-dihydroquinazolin-3(4H)-yl)phenyl)-7-(2-hydroxypropan-2-yl)-9H-carbazole-1-carboxamide [Example 45] | IC50 (human recombinant Btk): 0.45 nM; IC50 [1]: 68 nM |
| 3300 | Cc1c(-c2c(Cl)cc(C(N)=O)c3[nH]c4cc(C(C)(C)O)ccc4c23)cccc1-n1c(=O)[nH]c2c(F)cc(F)cc2c1=O (single isomer, unassigned) [Example 48] | – |
